Measured values as given in EPA's ToxRefDB 2.

What was measured:
[1] = tested on: rat; conditions: Combined chronic toxicity/carcinogenicity; wistar; Oral; Feed; dose end: 104 week; group: systemic; systemic / in life observation / body weight / body weight + systemic / in life observation / body weight / body weight gain + systemic / …
[2] = tested on: rat; conditions: Multigenerational reproductive toxicity study, wistar (Chbb = THOM-SPF), Oral, Feed, dose end: 1 generation
[3] = tested on: mouse; conditions: Subchronic oral toxicity in rodents, b6c3f1, Feed, dose end: 91 day, group: systemic
[4] = tested on: rat; conditions: Subchronic oral toxicity in rodents, wistar, Feed, dose end: 3 month
[5] = tested on: dog; conditions: Subchronic oral toxicity in nonrodent, beagle, Feed, dose end: 52 week, group: systemic, systemic / clinical chemistry / albumin / albumin + systemic / clinical chemistry / cholesterol / cholesterol + systemic / clinical …
[6] = tested on: rat; conditions: Prenatal developmental toxicity study, wistar, Oral, Gavage/Intubation, dose end: 19 GD
[7] = tested on: rabbit; conditions: Prenatal developmental toxicity study, himalayan, Oral, Gavage/Intubation, dose end: 28 GD
[8] = group: offspring, systemic / in life observation / body weight / offspring (pup) weight
[9] = group: parental, systemic / in life observation / body weight / body weight + systemic / in life observation / body weight / body weight gain + systemic / in…
[10] = systemic / clinical chemistry / triglycerides / triglycerides + systemic / clinical chemistry / urea nitrogen / urea + systemic / in life …
[11] = systemic / pathology microscopic / stomach / erosion
[12] = group: cholinesterase, cholinesterase / cholinesterase / cholinesterase / cholinesterase (che)
[13] = group: systemic, systemic / in life observation / body weight / body weight + systemic / in life observation / body weight / body weight gain + systemic / in…
[14] = group: developmental, developmental / developmental malformation / bone / cervical + developmental / developmental malformation / kidney / dilated renal pelvis
[15] = group: maternal, systemic / in life observation / body weight / body weight + systemic / in life observation / body weight / body weight gain + systemic / in…
[16] = group: developmental, developmental / developmental malformation / bone / absent
[17] = group: maternal, reproductive / reproductive performance / postimplantation loss / postimplantation loss + reproductive / reproductive performance / …
[18] = group: maternal, systemic / in life observation / body weight / body weight gain + systemic / in life observation / food consumption / food consumption + …

For COC(=O)N(OC)c1ccccc1COc1ccn(-c2ccc(Cl)cc2)n1 [Pyraclostrobin], which LEL [1] is on record?
The LEL was 9.2 mg/kg/day.

And the LOAEL [1]?
The LOAEL was 9.2 mg/kg/day.

And the NEL [1]?
The NEL was 3.4 mg/kg/day.

And the NOAEL [1]?
Its NOAEL is 3.4 mg/kg/day.

And the LEL [2, 8]?
The LEL was 20.5 mg/kg/day.

And the LOAEL [2, 8]?
The LOAEL was 20.5 mg/kg/day.

And the NEL [2, 8]?
Its NEL is less than 20.5 mg/kg/day.

What about the NOAEL [2, 8] of the same molecule?
The NOAEL was less than 20.5 mg/kg/day.

What about the LOAEL ([2]; group: parental, systemic / in life observation / body weight / body weight + systemic / in life observation / body weight / body weight gain) of the same molecule?
The LOAEL was 39.9 mg/kg/day.

And the LEL [2, 9]?
Its LEL is 39.9 mg/kg/day.

What about the NEL [2, 9] of the same molecule?
Its NEL is 20.5 mg/kg/day.

And the NOAEL [2, 9]?
The NOAEL was 20.5 mg/kg/day.

What about the LOAEL [3, 10] of the same molecule?
Its LOAEL is 30.4 mg/kg/day.

And the NOAEL [3, 10]?
Its NOAEL is 9.2 mg/kg/day.

What about the LEL [3, 11] of the same molecule?
The LEL was 12.9 mg/kg/day.

And the NEL [3, 11]?
The NEL was less than 12.9 mg/kg/day.

And the LEL [4, 12]?
Its LEL is 79.7 mg/kg/day.

And the LOAEL [4, 12]?
Its LOAEL is greater than 119 mg/kg/day.

And the NEL [4, 12]?
Its NEL is 40.8 mg/kg/day.

And the NOAEL [4, 12]?
Its NOAEL is no less than 119 mg/kg/day.

And the LOAEL [4, 13]?
The LOAEL was 34.7 mg/kg/day.

What about the NEL [4, 13] of the same molecule?
Its NEL is 3.5 mg/kg/day.

And the NOAEL [4, 13]?
Its NOAEL is 10.7 mg/kg/day.

What about the LEL ([4]; group: systemic, systemic / pathology microscopic / spleen / histiocytosis) of the same molecule?
Its LEL is 10.7 mg/kg/day.

And the LEL [5]?
The LEL was 10.8 mg/kg/day.

And the LOAEL [5]?
Its LOAEL is 10.8 mg/kg/day.

What about the NEL [5] of the same molecule?
Its NEL is 5.4 mg/kg/day.

And the NOAEL [5]?
Its NOAEL is 5.4 mg/kg/day.

What about the LEL [6, 14] of the same molecule?
Its LEL is 50 mg/kg/day.

What about the LOAEL [6, 14] of the same molecule?
Its LOAEL is 50 mg/kg/day.

What about the NEL [6, 14] of the same molecule?
Its NEL is 25 mg/kg/day.

What about the NOAEL [6, 14] of the same molecule?
The NOAEL was 25 mg/kg/day.

And the LEL [6, 15]?
Its LEL is 25 mg/kg/day.

And the LOAEL [6, 15]?
Its LOAEL is 25 mg/kg/day.

And the NEL [6, 15]?
The NEL was 10 mg/kg/day.

What about the NOAEL [6, 15] of the same molecule?
Its NOAEL is 10 mg/kg/day.

What about the LEL [7, 16] of the same molecule?
Its LEL is 20 mg/kg/day.

What about the LOAEL [7, 16] of the same molecule?
Its LOAEL is greater than 20 mg/kg/day.

What about the NEL [7, 16] of the same molecule?
The NEL was 10 mg/kg/day.

What about the NOAEL [7, 16] of the same molecule?
The NOAEL was no less than 20 mg/kg/day.

And the LOAEL [7, 17]?
The LOAEL was 10 mg/kg/day.

What about the NOAEL [7, 17] of the same molecule?
The NOAEL was 5 mg/kg/day.

What about the LEL [7, 18] of the same molecule?
The LEL was 5 mg/kg/day.

What about the NEL [7, 18] of the same molecule?
The NEL was less than 5 mg/kg/day.
